From PubChem BioAssay (NCI)
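GI50: concentration for 50% inhibition of growth. The concentration for full growth arrest is given as TGI.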

Columns and labels:
Experiment in all cases: DTP human tumour cell line panel, 384-well format
786-0 renal = test system: 786-0 renal
A498 renal = test system: A498 renal
A549 NSCLC = test system: A549 NSCLC
ACHN renal = test system: ACHN renal
BT-549 breast = test system: BT-549 breast
CAKI-1 renal = test system: CAKI-1 renal
COLO 205 colon = test system: COLO 205 colon
DU-145 prostate = test system: DU-145 prostate
EKVX NSCLC = test system: EKVX NSCLC
HCC-2998 colon = test system: HCC-2998 colon
HCT-116 colon = test system: HCT-116 colon
HCT-15 colon = test system: HCT-15 colon
HL-60(TB) leukemia = test system: HL-60(TB) leukemia
HOP-62 NSCLC = test system: HOP-62 NSCLC
HOP-92 NSCLC = test system: HOP-92 NSCLC
HS 578T breast = test system: HS 578T breast
HT29 colon = test system: HT29 colon
IGROV1 ovarian = test system: IGROV1 ovarian
KM12 colon = test system: KM12 colon
LOX IMVI melanoma = test system: LOX IMVI melanoma
M14 melanoma = test system: M14 melanoma
MALME-3M melanoma = test system: MALME-3M melanoma
MCF7 breast = test system: MCF7 breast
MDA-MB-231 breast = test system: MDA-MB-231 breast
MDA-MB-435 melanoma = test system: MDA-MB-435 melanoma
MDA-MB-468 breast = test system: MDA-MB-468 breast
MOLT-4 leukemia = test system: MOLT-4 leukemia
NCI-H226 lung = test system: NCI-H226 lung
NCI-H23 lung = test system: NCI-H23 lung
NCI-H322M lung = test system: NCI-H322M lung
NCI-H460 NSCLC = test system: NCI-H460 NSCLC
NCI-H522 lung = test system: NCI-H522 lung
NCI/ADR-RES ovarian = test system: NCI/ADR-RES ovarian
OVCAR-3 ovarian = test system: OVCAR-3 ovarian
OVCAR-5 ovarian = test system: OVCAR-5 ovarian
OVCAR-8 ovarian = test system: OVCAR-8 ovarian
PC-3 prostate = test system: PC-3 prostate
RPMI-8226 leukemia = test system: RPMI-8226 leukemia
RXF 393 renal = test system: RXF 393 renal
SF-268 CNS = test system: SF-268 CNS
SF-539 CNS = test system: SF-539 CNS
SK-MEL-28 melanoma = test system: SK-MEL-28 melanoma
SK-MEL-5 melanoma = test system: SK-MEL-5 melanoma
SK-OV-3 ovarian = test system: SK-OV-3 ovarian
SN12C renal = test system: SN12C renal
SNB-19 CNS = test system: SNB-19 CNS
SNB-75 CNS = test system: SNB-75 CNS
SW-620 colon = test system: SW-620 colon
T-47D breast = test system: T-47D breast
TK-10 renal = test system: TK-10 renal
U251 glioblastoma = test system: U251 glioblastoma
UACC-257 melanoma = test system: UACC-257 melanoma
UACC-62 melanoma = test system: UACC-62 melanoma
UO-31 renal = test system: UO-31 renal

Compound: C[C@]12CC[C@H](O)CC1=CC[C@@H]1[C@@H]2CC[C@]2(C)C(c3cccnc3)=CC[C@@H]12
- GI50 (786-0 renal): 1.93 µM
- TGI (786-0 renal): 3.88 µM
- GI50 (A498 renal): 15.8 µM
- TGI (A498 renal): 45.1 µM
- GI50 (A549 NSCLC): 63.9 µM
- TGI (A549 NSCLC): > 100 µM
- GI50 (ACHN renal): 22.9 µM
- TGI (ACHN renal): > 100 µM
- GI50 (BT-549 breast): 9.12 µM
- TGI (BT-549 breast): 69.7 µM
- GI50 (CAKI-1 renal): 52.8 µM
- TGI (CAKI-1 renal): > 100 µM
- GI50 (COLO 205 colon): 42.1 µM
- TGI (COLO 205 colon): > 100 µM
- GI50 (DU-145 prostate): > 100 µM
- TGI (DU-145 prostate): > 100 µM
- GI50 (EKVX NSCLC): 25.9 µM
- TGI (EKVX NSCLC): > 100 µM
- GI50 (HCC-2998 colon): > 100 µM
- TGI (HCC-2998 colon): > 100 µM
- GI50 (HCT-116 colon): 57 µM
- TGI (HCT-116 colon): > 100 µM
- GI50 (HCT-15 colon): 9.74 µM
- TGI (HCT-15 colon): > 100 µM
- GI50 (HL-60(TB) leukemia): 4.06 µM
- TGI (HL-60(TB) leukemia): 10.1 µM
- GI50 (HOP-62 NSCLC): 20 µM
- TGI (HOP-62 NSCLC): > 100 µM
- GI50 (HOP-92 NSCLC): 25.2 µM
- TGI (HOP-92 NSCLC): > 100 µM
- GI50 (HS 578T breast): 9.52 µM
- TGI (HS 578T breast): 49 µM
- GI50 (HT29 colon): 15.2 µM
- TGI (HT29 colon): 96.1 µM
- GI50 (IGROV1 ovarian): 60.4 µM
- TGI (IGROV1 ovarian): > 100 µM
- GI50 (KM12 colon): 38.3 µM
- TGI (KM12 colon): > 100 µM
- GI50 (LOX IMVI melanoma): 4.93 µM
- TGI (LOX IMVI melanoma): > 100 µM
- GI50 (M14 melanoma): > 100 µM
- TGI (M14 melanoma): > 100 µM
- GI50 (MALME-3M melanoma): 3.99 µM
- TGI (MALME-3M melanoma): 61.5 µM
- GI50 (MCF7 breast): > 100 µM
- TGI (MCF7 breast): > 100 µM
- GI50 (MDA-MB-231 breast): > 100 µM
- TGI (MDA-MB-231 breast): > 100 µM
- GI50 (MDA-MB-435 melanoma): > 100 µM
- TGI (MDA-MB-435 melanoma): > 100 µM
- GI50 (MDA-MB-468 breast): 5.46 µM
- TGI (MDA-MB-468 breast): > 100 µM
- GI50 (MOLT-4 leukemia): 2.99 µM
- TGI (MOLT-4 leukemia): 25 µM
- GI50 (NCI-H226 lung): 4.86 µM
- TGI (NCI-H226 lung): > 100 µM
- GI50 (NCI-H23 lung): > 100 µM
- TGI (NCI-H23 lung): > 100 µM
- GI50 (NCI-H322M lung): > 100 µM
- TGI (NCI-H322M lung): > 100 µM
- GI50 (NCI-H460 NSCLC): > 100 µM
- TGI (NCI-H460 NSCLC): > 100 µM
- GI50 (NCI-H522 lung): > 100 µM
- TGI (NCI-H522 lung): > 100 µM
- GI50 (NCI/ADR-RES ovarian): > 100 µM
- TGI (NCI/ADR-RES ovarian): > 100 µM
- GI50 (OVCAR-3 ovarian): > 100 µM
- TGI (OVCAR-3 ovarian): > 100 µM
- GI50 (OVCAR-5 ovarian): > 100 µM
- TGI (OVCAR-5 ovarian): > 100 µM
- GI50 (OVCAR-8 ovarian): > 100 µM
- TGI (OVCAR-8 ovarian): > 100 µM
- GI50 (PC-3 prostate): > 100 µM
- TGI (PC-3 prostate): > 100 µM
- GI50 (RPMI-8226 leukemia): 2.36 µM
- TGI (RPMI-8226 leukemia): 4.65 µM
- GI50 (RXF 393 renal): 1.83 µM
- TGI (RXF 393 renal): 4.72 µM
- GI50 (SF-268 CNS): > 100 µM
- TGI (SF-268 CNS): > 100 µM
- GI50 (SF-539 CNS): > 100 µM
- TGI (SF-539 CNS): > 100 µM
- GI50 (SK-MEL-28 melanoma): > 100 µM
- TGI (SK-MEL-28 melanoma): > 100 µM
- GI50 (SK-MEL-5 melanoma): > 100 µM
- TGI (SK-MEL-5 melanoma): > 100 µM
- GI50 (SK-OV-3 ovarian): > 100 µM
- TGI (SK-OV-3 ovarian): > 100 µM
- GI50 (SN12C renal): > 100 µM
- TGI (SN12C renal): > 100 µM
- GI50 (SNB-19 CNS): > 100 µM
- TGI (SNB-19 CNS): > 100 µM
- GI50 (SNB-75 CNS): > 100 µM
- TGI (SNB-75 CNS): > 100 µM
- GI50 (SW-620 colon): > 100 µM
- TGI (SW-620 colon): > 100 µM
- GI50 (T-47D breast): > 100 µM
- TGI (T-47D breast): > 100 µM
- GI50 (TK-10 renal): > 100 µM
- TGI (TK-10 renal): > 100 µM
- GI50 (U251 glioblastoma): > 100 µM
- TGI (U251 glioblastoma): > 100 µM
- GI50 (UACC-257 melanoma): > 100 µM
- TGI (UACC-257 melanoma): > 100 µM
- GI50 (UACC-62 melanoma): > 100 µM
- TGI (UACC-62 melanoma): > 100 µM
- GI50 (UO-31 renal): > 100 µM
- TGI (UO-31 renal): > 100 µM
